This is an account of results in paper PMC7761830, “Structure-Based Virtual Screening of Ultra-Large Library Yields Potent Antagonists for a Lipid GPCR” (Biomolecules, 2020).

One experiment deals with CysLT1R. Conditions: cited from earlier work; for pAct: CysLT1R, ChEMBL value, ref 29 (ChEMBL).
The next experiment deals with CysLT2R. The following applies: cited from earlier work; for pAct: CysLT2R, ChEMBL value, ref 29 (ChEMBL).
A further experiment concerns the target T1, wild-type CysLT2R (Homo sapiens, UniProt Q9NS75).
T1 construct: expressed in transfected cells; host or cells: HEK293 (ATCC CRL-1573), transient transfection with Lipofectamine 3000
T1 sequence (Q9NS75 1-346): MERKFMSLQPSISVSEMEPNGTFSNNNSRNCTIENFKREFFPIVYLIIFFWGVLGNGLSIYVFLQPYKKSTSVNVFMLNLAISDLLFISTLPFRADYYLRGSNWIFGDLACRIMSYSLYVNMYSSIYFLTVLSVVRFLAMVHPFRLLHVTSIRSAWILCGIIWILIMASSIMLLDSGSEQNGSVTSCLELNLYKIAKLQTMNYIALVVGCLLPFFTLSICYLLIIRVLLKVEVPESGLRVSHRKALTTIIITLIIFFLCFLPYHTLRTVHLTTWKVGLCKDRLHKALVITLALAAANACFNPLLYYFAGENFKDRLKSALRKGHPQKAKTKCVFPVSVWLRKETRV
Briefly: IP1 production assay, antagonist mode, co-stimulation with EC80 LTD4. The class given is cell-based.

The target of another experiment is T2, wild-type CysLT1R (Homo sapiens, UniProt Q9Y271).
T2 construct: expressed in transfected cells; host or cells: HEK293 (ATCC CRL-1573), transient transfection with Lipofectamine 3000
T2 sequence (Q9Y271 1-337): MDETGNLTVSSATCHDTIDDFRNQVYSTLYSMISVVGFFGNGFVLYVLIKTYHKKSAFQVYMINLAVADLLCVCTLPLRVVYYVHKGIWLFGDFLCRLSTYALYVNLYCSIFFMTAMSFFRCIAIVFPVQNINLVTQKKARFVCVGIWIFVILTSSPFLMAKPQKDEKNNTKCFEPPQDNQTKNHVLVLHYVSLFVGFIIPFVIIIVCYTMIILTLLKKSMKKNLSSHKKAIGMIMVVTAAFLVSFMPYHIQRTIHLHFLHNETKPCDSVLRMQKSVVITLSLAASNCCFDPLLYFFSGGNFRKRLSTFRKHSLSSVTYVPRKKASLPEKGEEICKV
The description is as above. The class given is cell-based.

The structures appear in SMILES notation.

As for `CCCC(CCc1nnn[nH]1)Cc1ccc(OCc2ccc3ccccc3n2)cc1` (centres unmarked) [CHEMBL97356, CCCC(CCc1nnn[nH]1)Cc1ccc(cc1)OCc1ccc2ccccc2n1], the pAct with CysLT1R was 8.0. For orientation: IC50 means the concentration needed to halve the response being measured. For the compound `O=C(O)c1[nH]c2ccccc2c1C(=O)Nc1cccc(/C=C/c2ccc3ccc(Cl)cc3n2)c1` [CHEMBL3809164], the IC50 in the experiment with CysLT1R (activity of the ligand from ChEMBL, ref ChEMBL, read-out: IC50 (CysLT1)) was 35 nM. Regarding `CC(C)(O)c1ccc(CC[C@@H](SCC2(CC(=O)O)CC2)c2cccc(C=Cc3ccc4sc(Cl)c(Cl)c4n3)c2)cc1` [CHEMBL313187, CC(C)(c1ccc(CC[C@H](c2cccc(C=Cc3ccc4c(c(c(s4)[Cl])[Cl])n3)c2)SCC2(CC2)CC(O)=O)cc1)O], the pAct with CysLT1R is on record as 9.4.

As to `CN(C)C(=O)CCS[C@H](SCCC(=O)O)c1cccc(C=Cc2ccc3ccc(Cl)cc3n2)c1.[Na]` [CHEMBL89340, CN(C)C(CCS[C@@H](c1cccc(C=Cc2ccc3ccc(cc3n2)[Cl])c1)SCCC(O)=O)=O.[Na]], the pAct with CysLT1R is reported as 8.5. On to `CCCCCC=CCC=CC=CC=C[C@@H](SC[C@H](N)C(=O)NCC(=O)O)[C@@H](O)CCCC(=O)O` [CHEMBL288943, CCCCCC=CCC=CC=CC=C[C@H]([C@H](CCCC(O)=O)O)SC[C@@H](C(NCC(O)=O)=O)N], for which the pAct in the experiment with CysLT1R was 9.5.

With `O=C(O)CCCN1CC(C(=O)O)Oc2c(C=Cc3ccc(OCCCCOc4ccccc4)cc3)cccc21` (centres unmarked) [CHEMBL3403187, C(CC(O)=O)CN1CC(C(O)=O)Oc2c(C=Cc3ccc(cc3)OCCCCOc3ccccc3)cccc12], the pAct with CysLT2R was 9.5. `O=C(Nc1cccc2c(=O)cc(-c3nn[nH]n3)oc12)c1ccc(OCCCCc2ccccc2)cc1` [CHEMBL21333, C(CCOc1ccc(cc1)C(Nc1cccc2C(C=C(c3nn[nH]n3)Oc12)=O)=O)Cc1ccccc1]: the pAct in the experiment with CysLT1R is given as 9.1. As for `O=C(O)c1ccc(OCCCc2ccc(OCCCCOc3ccccc3)cc2)c(C(=O)NC2CCCC(C(=O)O)C2)c1` (centres unmarked) [CHEMBL3342945], the IC50 in the experiment with CysLT2R (activity of the ligand from ChEMBL, ref ChEMBL, read-out: IC50 (CysLT2)) is 53 nM. By Kd is commonly meant the constant that tells how readily two partners part at equilibrium. For `COc1cc(C(=O)NS(=O)(=O)c2ccccc2C)ccc1Cc1cn(C)c2ccc(NC(=O)NC3CCCC3)cc12` [CHEMBL431348], on CysLT1R (activity of the ligand from ChEMBL, ref ChEMBL, read-out: Kd (CysLT1)), the dissociation constant Kd is 0.79 nM. As for `COc1cccc2c(C=CC(=O)Nc3cccc(C=Cc4ccc5ccc(Cl)cc5n4)c3)c(C(=O)O)[nH]c12` [CHEMBL3810210, COc1cccc2c(C=CC(Nc3cccc(C=Cc4ccc5ccc(cc5n4)[Cl])c3)=O)c(C(O)=O)[nH]c12], the pAct with CysLT1R is listed as 8.2. Turning to `O=C(O)CCCN1CC(c2nnn[nH]2)Oc2c(C=Cc3ccc(OCCCCc4ccccc4)cc3)cccc21` (centres unmarked) [CHEMBL3403186, C(CCOc1ccc(C=Cc2cccc3c2OC(CN3CCCC(O)=O)c2nnn[nH]2)cc1)Cc1ccccc1], the pAct is 9.2 in the experiment with CysLT1R and 8.5 with CysLT2R. On to `O=C(O)CCCN1CC(C(=O)O)Oc2c(C=Cc3ccc(OCCCCc4ccccc4)cc3)cccc21` (centres unmarked) [CHEMBL3401687, C(CCOc1ccc(C=Cc2cccc3c2OC(CN3CCCC(O)=O)C(O)=O)cc1)Cc1ccccc1], for which the pAct with CysLT2R is 8.2.

For `O=C(O)CCCN1CC(c2nn[nH]n2)Oc2c(NC(=O)c3ccc(OCCCCc4ccccc4)cc3)cccc21` (centres unmarked) [CHEMBL3401689, C(CCOc1ccc(cc1)C(Nc1cccc2c1OC(CN2CCCC(O)=O)c1nn[nH]n1)=O)Cc1ccccc1], in the experiment on CysLT2R, the pAct was 9.3. For `O=C(O)c1cc(Cl)cc2c(=O)cc(-c3cccc(C=Cc4ccc5ccccc5n4)c3)oc12` [CHEMBL416769, C(=Cc1ccc2ccccc2n1)c1cccc(c1)C1=CC(c2cc(cc(C(O)=O)c2O1)[Cl])=O], in the experiment with CysLT1R, the pAct is recorded as 8.0. Take `Cc1c(Cl)cccc1CCCCOc1ccc(C#Cc2cccc3c(CCCC(=O)O)c(C)n(CC(=O)O)c23)cc1` [CHEMBL3597618, Cc1c(CCCCOc2ccc(C#Cc3cccc4c(CCCC(O)=O)c(C)n(CC(O)=O)c34)cc2)cccc1[Cl]]: the pAct in the experiment with CysLT1R is on record as 9.7.

With `O=C(Nc1ccc2ccc(OCc3ccc4ccccc4n3)cc2c1)OCc1ccc(C(=O)O)cc1` [CHEMBL132167, C(c1ccc(cc1)C(O)=O)OC(Nc1ccc2ccc(cc2c1)OCc1ccc2ccccc2n1)=O], the pAct in the experiment on CysLT1R is listed as 8.0.

Take `O=C(O)CCCN1CC(C(=O)O)Oc2c(NC(=O)c3ccc(OCCCCCc4ccccc4)cc3)cccc21` (centres unmarked) [CHEMBL3342959, C(CCc1ccccc1)CCOc1ccc(cc1)C(Nc1cccc2c1OC(CN2CCCC(O)=O)C(O)=O)=O]: in the experiment on CysLT2R, the pAct was 9.2. As to `COc1cc(C(=O)NS(=O)(=O)c2ccccc2C)ccc1Cc1cn(C)c2ccc(NC(=O)OC3CCCC3)cc12` [CHEMBL603, Cc1ccccc1S(NC(c1ccc(Cc2cn(C)c3ccc(cc23)NC(=O)OC2CCCC2)c(c1)OC)=O)(=O)=O], the pAct in the experiment on CysLT1R is 11.4. As for `O=C(O)CCCc1cn(CC(=O)O)c2c(C=Cc3ccc(OCCCCOc4ccccc4)cc3)cccc12` [CHEMBL3597522, C(CC(O)=O)Cc1cn(CC(O)=O)c2c(C=Cc3ccc(cc3)OCCCCOc3ccccc3)cccc12], in the experiment on CysLT2R, the pAct is listed as 8.2.

Turning to `COc1ccc(NS(=O)(=O)C(F)(F)F)cc1C[C@H]1[C@@H](CO)c2cc(OCc3ccc4ccc(C)cc4n3)ccc2OC1(C)C` [CHEMBL1214531, Cc1ccc2ccc(COc3ccc4c(c3)[C@H](CO)[C@H](Cc3cc(ccc3OC)NS(C(F)(F)F)(=O)=O)C(C)(C)O4)nc2c1], the pAct in the experiment with CysLT1R is reported as 8.4. `O=C(O)CCCN1C[C@@H](C(=O)O)Oc2c(NC(=O)c3ccc(OCCCCc4ccccc4)cc3)cccc21` [CHEMBL3342964, C(CCOc1ccc(cc1)C(Nc1cccc2c1O[C@@H](CN2CCCC(O)=O)C(O)=O)=O)Cc1ccccc1]: the pAct with CysLT2R is recorded as 9.1.

Take `CC(C)(O)c1ccccc1CC[C@@H](SCC1(CC(=O)O)CC1)c1cccc(C=Cc2ccc3c(n2)CCS3)c1` [CHEMBL140058, CC(C)(c1ccccc1CC[C@H](c1cccc(C=Cc2ccc3c(CCS3)n2)c1)SCC1(CC1)CC(O)=O)O]: the pAct in the experiment with CysLT1R is on record as 8.5. For the compound `O=C(O)CSc1nc2ccccc2c2nc(CCc3ccccc3)nn12` [BRI-12314], the remaining activity at 30 µM at wild-type CysLT2R was 96.9%; at wild-type CysLT1R, 66.7%.

`O=C(Nc1cnc2[nH]ccc2c1)c1cnc2c(c1)c(=O)[nH]c(=O)n2Cc1ccccc1` [BRI-12401]: the remaining activity at 30 µM at wild-type CysLT2R was 35.6%; at wild-type CysLT1R, 89.5%. Further, on wild-type CysLT2R (HEK293, compound 30 µM, LTD4 at EC80, HEK293, wild-type CysLT2R, read-out: inhibition of LTD4-induced IP1 production, single-concentration screen), the inhibition at 30 µM is at least 50%. In addition, the Emax at wild-type CysLT2R (HEK293, read-out: CysLT2R (LTD4) % Max Inhibition ± SEM) was determined as 19 ± 15%.

`COc1ccccc1OCc1ccc(C(=O)N[C@@H](CC(=O)O)c2ccc(Cl)cc2)o1` [BRI-12443]: the values for the remaining activity at 30 µM on wild-type CysLT2R and on wild-type CysLT1R were 82.3% and 84.5%, respectively. The corresponding values for `CC(Sc1ccccc1C(=O)O)C(=O)N1CC(=O)Nc2ccccc21` (centres unmarked) [BRI-12351] are 82.6% and 77.6%. Taken in the same sequence, the figures for `c1ccc(C(CNc2ccc3nnnn3n2)c2c[nH]c3ccccc23)cc1` (centres unmarked) [BRI-12355] were 91.8% and 76.8%. In the case of `CC(Sc1nnc(-c2c[nH]c3ccccc23)n1C1CC1)C(=O)NC(N)=O` (centres unmarked) [BRI-12347], the values for the remaining activity at 30 µM at wild-type CysLT2R and at wild-type CysLT1R were 104% and 79.7%, respectively.

Regarding `O=C(Cc1ccc(S(=O)(=O)CCO)cc1)Nc1ccc(-c2nc3cccc(Cl)c3s2)cc1` [BRI-12452], the results for the remaining activity at 30 µM at wild-type CysLT2R and on wild-type CysLT1R were 77.4% and 76.5%, respectively. Taken in the same sequence, the figures for `O=C(O)CNS(=O)(=O)c1cccc(NC(=O)c2ccc(C3CCC3)cc2)c1` [BRI-12429] were 68% and 72.3%. With `O=C(CCCc1ccc2[nH]c(=O)[nH]c2c1)Nc1ccc(C(=O)Nc2cccnc2)cc1` [BRI-12415], the results for the remaining activity at 30 µM at wild-type CysLT2R and at wild-type CysLT1R were 56.8% and 85.1%, respectively. Take `O=C(O)CCCN1CC(C(=O)NS(=O)(=O)c2ccccc2)Oc2c(NC(=O)c3ccc(OCCCCc4ccccc4)cc3)cccc21` (centres unmarked) [CHEMBL3401691, C(CCOc1ccc(cc1)C(Nc1cccc2c1OC(CN2CCCC(O)=O)C(NS(c1ccccc1)(=O)=O)=O)=O)Cc1ccccc1]: the pAct in the experiment with CysLT2R is recorded as 8.2.
